Series [1] relates to H1993 cells. Description: Sensitization by 5-azacytidine pretreatment, H1993. It counts as cell-based, human. Conditions: 500 nM 5-azacytidine for one week. The procedure: (§1) All three resistant cell lines were pre-treated with 500 nM of the demethylating agent 5-azacytidine for one week. Following the 5-azacytidine pretreatment, each resistant cell line was treated with 9 different concentrations (0.01 to 1000 micromolar) of 6-thio-dG for one week. Cells were then evaluation for growth/death.

Series [2] concerns H1819. Description: Sensitization by 5-azacytidine pretreatment, H1819. It counts as cell-based, human. Conditions: 500 nM 5-azacytidine for one week. The procedure:
as §1

The test system of series [3] is H1693. The series is described as follows: Sensitization by 5-azacytidine pretreatment, H1693. Conditions: 500 nM 5-azacytidine for one week. It counts as cell-based, human. The procedure:
as §1

The test system of series [4] is HCT116. The series is described as follows: GI 50 determination, HCT116. It counts as cell-based. Conditions: Homo sapiens, HCT-116. As to the method:
(§2) Cells of each type listed in Table 2 were seeded in chamber slides.

Series [5] concerns H2882. Description: GI 50 determination, H2882. In kind it is cell-based. Conditions: Homo sapiens, NCI-H2882. As to the method: as §2
The subject of series [6] is BJ cells. The series is described as follows: Telomere dysfunction induced foci (TIF) assay in normal BJ cells. In kind it is cell-based, human. Conditions: 10 μM, after 48 hours. As to the method:
(§3) TIFs were quantified using Imaris software.
(§4) Normal BJ cells and […] BJ-hTERT cells were seeded in chamber slides. Following cell attachment, 6-thio-dG (10 μM) and 6-thio-G (10 μM) were added to fresh medium of each cell type. […] A control was used for each cell type as well, where DMSO was added to fresh medium of each cell type. […] These include almost all human cancer cells and certain human diseases involving acute and chronic inflammation.

Series [7] concerns H2009. Description: GI 50 determination, H2009. In kind it is cell-based. Conditions: Homo sapiens, NCI-H2009. As to the method:
as §2

Series [8] deals with BJ-hTERT cells. The series is described as follows: Telomere dysfunction induced foci (TIF) assay in BJ-hTERT cells. It counts as cell-based, human. Conditions: 10 μM, after 48 hours. As to the method:
as §3, §4

Series [9] deals with BJ. The series is described as follows: GI 50 determination, BJ. In kind it is cell-based. Conditions: Homo sapiens; BJ normal cell line. The procedure:
as §2

The subject of series [10] is A549. The series is described as follows: GI 50 determination, A549. It counts as cell-based. Conditions: Homo sapiens. The procedure:
as §2

For series [11], the system named is HCC2429. Description: GI 50 determination, HCC2429. In kind it is cell-based. Conditions: Homo sapiens. The procedure: as §2
For series [12], the system named is HCT116 cells. Conditions: 1 μM or 10 μM every 3 days, after 10 weeks. As to the method:
(§5) For long-term cellular experiments, HCT116 (1,000 cells/cm^2) and BJ (10,000 cells/cm^2) cells were fed with 6-thio-dG (1, 3, 10 μM) containing medium every three days. The cells were counted and replated every week for 10-16 weeks. Additionally, HCT116 cells (1,000 cells/cm^2) were fed with 6-thio-G (1, 3, 10 μM) every three days and each week cells were counted, collected for TRF (Telomere Restriction Fragment) analysis and replated. HCT116 cells, following treatment with 10 μM 6-thio-dG for 12 weeks, were then treated with a combination of 10 μM 6-thio-dG and 3 μM GRN163L for 2-4 weeks.

Series [13] relates to HCC15. Description: GI 50 determination, HCC15. It counts as cell-based. Conditions: Homo sapiens. As to the method:
as §2

Series [14] has as its system BJ fibroblast cells. Description: Telomere length assay (TRF), BJ fibroblasts long-term culture. It counts as cell-based, human. Conditions: 10 weeks, compared to untreated control. As to the method:
as §5

The subject of series [15] is A549 human lung cancer cells. The series is described as follows: Tumor growth in xenograft animal model with A549 cells. Conditions: 2.5 mg/kg every day. In kind it is in vivo, mice. The procedure: Doses of 2.5 mg/kg of 6-thio-dG and 2.5 mg/kg of 6-thio-G were injected every day into mice after tumor implantation and providing time for tumor initiation. DMSO injections were used for the control. The volume of the tumor was measured.

The test system of series [16] is H2087. Description: GI 50 determination, H2087. Conditions: Homo sapiens, NCI-H2087. In kind it is cell-based. As to the method: as §2
The target of series [17] is T1, telomerase (Homo sapiens, UniProt O14746).
T1 construct: endogenous in cells; host or cells: HCT116 human colon cancer cells (lysate)
The series is described as follows: Telomerase activity by TRAP assay in treated HCT116 cells. In kind it is cell-based. Conditions: HCT116 cells treated with 1 and 10 μM every 3 days for 12 weeks. The procedure: Telomerase activity was measured by the TRAP assay (Telomeric Repeat Amplification Protocol as described in Shay J. W. and Bacchetti S., “A survey of telomerase activity in human cancer,” European Journal of Cancer 1997; 33:787-91.). Briefly, HCT116 cells were treated with 1 or 10 μM 6-thio-dG for 1-12 weeks. 1×10^5 cells were collected and lysed with ice-cold NP-40 lysis buffer (10 mM Tris-HCl pH 8.0, 1.0 mM MgCl2, 1 mM EDTA, 1% NP-40, 0.25 mM sodium deoxycholate, 10% glycerol, 150 mM NaCl, 5 mM β-mercaptoethanol) for 30 min. One microliter cellular lysate for 2500 cells was used for each reaction. Hela cells were used as a positive control and lysis buffer was used as a negative control. Samples were prepared and then the telomerase extension products were amplified using PCR (95° C. for 5 min to inactivate telomerase, then 95° C. for 30 sec, 52° C. for 30 sec, 72° C. for 30 sec; 24 cycles). Samples were run on a 10% non-denaturating acrylamide gel and visualized using a Typhoon PhosphorImager scanner system (Molecular Dynamics, GE Healthcare, Piscataway, NJ) that is capable of reading Cy5 fluorescence.

In series [18] the test system is HCC827. Description: GI 50 determination, HCC827. Conditions: Homo sapiens. It counts as cell-based. The procedure: as §2
The test system of series [19] is HCC4017. The series is described as follows: GI 50 determination, HCC4017. Conditions: Homo sapiens. In kind it is cell-based. The procedure:
as §2

How the values of series [20] were obtained:
Six WT mice were treated with 1.67 mg of 6-thio-dG/kg of body weight daily. Six WT mice were treated with 1.67 mg of 6-thio-G/kg of body weight daily. Six WT mice were treated with 5 mg of 6-thio-dG/kg of body weight daily. Six WT mice were treated with 5 mg of 6-thio-G/kg of body weight daily. The mice were given the appropriate dosage and weighed daily for 25 days.

The subject of series [21] is HCC515. Description: GI 50 determination, HCC515. It counts as cell-based. Conditions: Homo sapiens. As to the method: as §2

Molecules are shown by their SMILES. A value given as a limit tells only on which side of the number the result lay.

By GI50 is commonly meant the concentration giving 50% growth inhibition.

T1 sequence (O14746 whole entry): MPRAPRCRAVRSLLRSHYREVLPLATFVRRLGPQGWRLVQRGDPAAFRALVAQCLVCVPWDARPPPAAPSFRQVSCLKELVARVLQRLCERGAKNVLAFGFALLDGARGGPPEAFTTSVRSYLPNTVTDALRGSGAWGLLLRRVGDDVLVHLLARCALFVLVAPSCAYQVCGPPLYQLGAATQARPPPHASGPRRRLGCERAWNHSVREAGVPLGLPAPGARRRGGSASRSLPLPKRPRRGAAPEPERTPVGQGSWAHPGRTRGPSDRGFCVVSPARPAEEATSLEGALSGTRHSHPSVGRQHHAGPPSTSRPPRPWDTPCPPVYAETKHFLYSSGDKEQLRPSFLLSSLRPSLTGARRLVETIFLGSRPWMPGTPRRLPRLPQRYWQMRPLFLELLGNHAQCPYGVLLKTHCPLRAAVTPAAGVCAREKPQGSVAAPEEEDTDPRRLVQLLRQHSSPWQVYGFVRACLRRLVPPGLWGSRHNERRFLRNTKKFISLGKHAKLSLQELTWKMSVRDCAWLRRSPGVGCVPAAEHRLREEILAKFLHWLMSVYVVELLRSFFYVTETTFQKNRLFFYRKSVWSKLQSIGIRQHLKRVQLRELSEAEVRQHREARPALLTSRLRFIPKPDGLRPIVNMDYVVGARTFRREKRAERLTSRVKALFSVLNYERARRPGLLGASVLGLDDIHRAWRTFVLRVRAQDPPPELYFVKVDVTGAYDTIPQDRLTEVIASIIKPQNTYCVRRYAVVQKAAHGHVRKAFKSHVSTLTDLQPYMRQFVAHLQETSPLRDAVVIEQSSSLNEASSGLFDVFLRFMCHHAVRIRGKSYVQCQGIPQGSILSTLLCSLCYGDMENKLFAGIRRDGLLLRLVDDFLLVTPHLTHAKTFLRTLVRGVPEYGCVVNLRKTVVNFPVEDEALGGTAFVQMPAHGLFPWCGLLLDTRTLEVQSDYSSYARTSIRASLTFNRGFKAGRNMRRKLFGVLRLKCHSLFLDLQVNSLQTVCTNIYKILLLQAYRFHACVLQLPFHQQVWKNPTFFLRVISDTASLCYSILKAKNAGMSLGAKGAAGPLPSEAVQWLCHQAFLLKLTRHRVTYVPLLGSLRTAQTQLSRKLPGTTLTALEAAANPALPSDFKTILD
T1 sequence (O60832 whole entry partner): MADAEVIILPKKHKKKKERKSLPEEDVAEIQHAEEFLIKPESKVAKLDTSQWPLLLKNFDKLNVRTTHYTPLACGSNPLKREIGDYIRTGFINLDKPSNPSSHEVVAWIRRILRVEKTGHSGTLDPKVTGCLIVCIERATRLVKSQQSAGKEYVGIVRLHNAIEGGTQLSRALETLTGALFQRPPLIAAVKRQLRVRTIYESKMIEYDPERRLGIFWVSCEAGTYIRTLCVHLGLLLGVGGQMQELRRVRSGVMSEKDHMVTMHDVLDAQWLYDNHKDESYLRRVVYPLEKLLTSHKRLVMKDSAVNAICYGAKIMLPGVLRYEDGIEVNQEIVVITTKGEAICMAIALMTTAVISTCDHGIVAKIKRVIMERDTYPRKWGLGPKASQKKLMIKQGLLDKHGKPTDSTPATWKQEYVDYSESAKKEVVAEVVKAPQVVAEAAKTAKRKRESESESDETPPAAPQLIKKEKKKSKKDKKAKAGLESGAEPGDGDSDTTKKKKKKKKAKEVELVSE
T1 sequence (Q9NY12 whole entry partner): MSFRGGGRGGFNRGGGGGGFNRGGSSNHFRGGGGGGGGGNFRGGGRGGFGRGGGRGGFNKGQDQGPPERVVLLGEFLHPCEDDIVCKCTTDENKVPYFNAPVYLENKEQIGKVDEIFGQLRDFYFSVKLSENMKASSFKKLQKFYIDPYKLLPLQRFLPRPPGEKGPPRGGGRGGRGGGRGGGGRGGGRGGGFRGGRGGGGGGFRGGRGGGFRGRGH
T1 sequence (Q9NX24 whole entry partner): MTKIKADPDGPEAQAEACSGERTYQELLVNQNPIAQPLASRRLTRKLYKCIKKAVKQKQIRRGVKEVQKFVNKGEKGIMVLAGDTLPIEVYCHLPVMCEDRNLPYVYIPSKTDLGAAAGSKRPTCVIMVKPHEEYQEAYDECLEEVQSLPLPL
T1 sequence (Q9NPE3 whole entry partner): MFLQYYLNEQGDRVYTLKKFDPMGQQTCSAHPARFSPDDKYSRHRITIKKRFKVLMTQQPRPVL
T1 sequence (Q9BUR4 whole entry partner): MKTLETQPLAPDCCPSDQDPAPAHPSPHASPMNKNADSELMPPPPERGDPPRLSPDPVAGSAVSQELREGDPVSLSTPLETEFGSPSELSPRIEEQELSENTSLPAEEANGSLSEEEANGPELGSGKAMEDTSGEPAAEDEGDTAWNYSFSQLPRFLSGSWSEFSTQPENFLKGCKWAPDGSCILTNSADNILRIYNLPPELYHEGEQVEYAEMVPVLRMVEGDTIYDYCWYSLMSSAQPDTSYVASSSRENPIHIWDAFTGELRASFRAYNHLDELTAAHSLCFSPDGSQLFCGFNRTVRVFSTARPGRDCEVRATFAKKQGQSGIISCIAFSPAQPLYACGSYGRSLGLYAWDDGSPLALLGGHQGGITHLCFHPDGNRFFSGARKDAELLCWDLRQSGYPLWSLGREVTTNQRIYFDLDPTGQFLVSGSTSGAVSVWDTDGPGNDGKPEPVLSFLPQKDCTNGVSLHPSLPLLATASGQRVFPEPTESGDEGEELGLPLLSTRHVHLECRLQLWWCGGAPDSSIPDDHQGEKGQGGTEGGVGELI

`Nc1ncn([C@@H]2O[C@H](CO)[C@@H](O)[C@H]2O)c(=O)n1` [5-azacytidine]: the “effect of pretreatment on sensitivity to 6-thio-dG” value in [1] is on record as “did increase sensitivity of the H1993 cells substantially”; in series [2] it was “no effect on the sensitivity”; in series [3] it was “no effect on the sensitivity”.

For `Nc1nc2nc[nH]c2c(=S)[nH]1` [6-thio-G, 6-thioguanine, reference compound], the GI50 is 1200 nM in series [4]; 600 nM in series [5]; 3300 nM in [7]; more than 100000 nM in [9]; 2300 nM in [10]; 700 nM in series [11]. For the same compound, the GI50 in [13] was found to be 1100 nM; in [16] it was 900 nM; in [18], 1700 nM; in series [19], 2000 nM; in series [21], 4900 nM. The “>4 TIFs per nucleus background subtracted” value in [6] and in [8] was 0 in each case. In series [12], the “effect on telomere length (TRF)” value was “did not result in any significant effects on telomere length”. In addition, the “telomere shortening (TRF)” value in series [14] is on record as “did not show enhanced telomere shortening”. In series [15], the “histology of residual tumors” value is “mostly “healthy” growing cancerous cells”. In addition, the “inhibition of telomerase activity (TRAP)” value in [17] was “no inhibition of telomerase activity was observed”. In addition, in series [20] (WT mice, 5 mg/kg daily), the mortality entry is listed as “all mice died by the 15th day”. Further, the weight loss result in series [20] (mouse, in vivo, 5 mg/kg) was “around 2 grams”.

The values above are taken from US12070472B2, “Treatment of drug resistant proliferative diseases with telomerase mediated telomere altering compounds” (The Board of Regents of the University of Texas System, priority 2016, dated 2024).
